Laboratory results published in US7261889B2, “Local anesthetic methods and kits” (Novalar Pharmaceuticals, Inc., priority 2000, dated 2007).
Entries after “also recorded” stand apart in the source; their conditions may differ. Where a name gives a salt, the structure may show the parent alone.

Legend:
[1] = test system: local anesthesia from 2% polocaine (mepivacaine hydrochloride) with levonordefrin in healthy, male human subjects; experiment: Human subjects study of local anesthesia reversal by LARA versus saline vehicle (bilateral injections); type: in vivo; details: three subjects; 0.05 mg/ml phentolamine-mesylate, 1.6 ml (0.08 mg)
Procedure: An injection of the physiological saline vehicle (without phentolamine-mesylate) served as the control. […] This was followed by injection of the phentolamine-mesylate containing local anesthetic reversal agent (LARA) into one side of the oral cavity, and injection of the saline vehicle (control) solution into the opposite side of the oral cavity. The time to reversal of the local anesthetic effect on both sides was then recorded to determine whether there is a difference between the two sides.
The local anesthetic used was 2% polocaine (mepivacaine hydrochloride) with levonordefrin (1:20,000=0.05 mg/ml) (levonordefrin injection, USP) (Astra USA, Inc., Westborough, Mass. 01581). Levonordefrin is a sympathomimetic amine with a pharmacological profile similar to that of epinephrine, but with a lower potency.
Three healthy, male human subjects, age 34-50, volunteered to have local anesthetic injected in the mouth bilaterally under the lip in an easily repeatable location. The exact time of each injection was recorded. The position chosen was above (apical) the prominence of the root of the upper cuspid teeth. This is a common site selected to numb the cuspids, lateral incisors and upper lip. The volume of the local anesthetic injected was 1.7+0.1 ml on each side of the mouth. […]

[2] = test system: patients pretreated with lignocaine admixed with epinephrine; details: 0.5-1.5 mg; '714 patent Example 1, Table 1; cited from earlier work
[3] = test system: patients; details: systemic doses; usually in association with marked hypotensive episodes; cited from earlier work

Compound: Cc1ccc(N(CC2=NCCN2)c2cccc(O)c2)cc1 [phentolamine-mesylate, phentolamine mesylate]
- local anesthesia reversal compared to saline side (in words) [1]: highly effective anesthesia reversal
- side-effects [1]: no side-effects of any kind were noted; also recorded: without any side-effects whatsoever

Compound: Cc1ccc(N(CC2=NCCN2)c2cccc(O)c2)cc1 [phentolamine]
- duration of anesthesia [2]: reduction in the duration of anesthesia with increasing amounts
- side effects reported following administration [3]: Myocardial infarction, cerebrovascular spasm, and cerebrovascular occlusion have been reported
